Measured values taken from US12459930B2, “Compounds for the inhibition of unregulated cell growth” (GODAVARI BIOREFINERIES LIMITED, priority 2018, dated 2025).
Like-named read-outs stand apart in the source and are kept apart here.

Assays:
[1] = test system: MDAMB231 breast cancer cell line; test: In vitro antiproliferative assay (MTT assay), MDAMB231; type: cell-based; settings: 48 hrs drug incubation, read-out: IC50 in micromolar, MDAMB231 (MTT assay)
Procedure: (§1) MTT assay is a simple and sensitive assay where, metabolic reducing activity of the cells is measured. The increase of this activity in time is taken as a parameter of cell growth. If treatment with a drug impairs this increase, the action is a consequence of growth inhibition, cell killing or both. […] All cell lines were cultured in a 37° C. incubator with a 5% CO2 environment. Compounds were dissolved in DMSO with a concentration of 0.1M (stock solution). Cells were seeded into 96-well plates at suitable plating efficiency.
(§2) Following plating efficiencies were standardized for MTT assay:
(§3) In the MTT procedure, the cells were plated in 96 well plates as per predetermined plating efficiency (Table1). The plates were then incubated for 24 hrs in 5% CO2 atmosphere at 37° C. Appropriate concentrations of the drugs were then added to the plate and further incubation was carried out for 48 hrs (in 5% CO2 atmosphere at 37° C.). The assay plate was then centrifuged twice at 3000 rpm for 3 mins and supernatant was then discarded. 100 ul of MTT solution (0.5 mg/ml) was then added to each well of the plate and it was further incubated for 4 hrs (in 5% CO2 atmosphere at 37° C.) Following 4 hr incubation, the plate was then centrifuged twice, and supernatant was aspirated off very carefully. 200 ul of DMSO was then added to each well to solubilize. MTT crystals and mixed well by shaking the plate. XY graph of log percent viability was then plotted against log drug concentration.

[2] = test system: PC3 prostate cancer cell line; test: In vitro antiproliferative assay (MTT assay), PC3; type: cell-based; settings: 48 hrs drug incubation, read-out: IC50 in micromolar, PC3 (MTT assay)
Procedure: as §1, §2, §3

[3] = test system: DU145 prostate cancer cell line; test: In vitro antiproliferative assay (MTT assay), DU145; type: cell-based; settings: 48 hrs drug incubation, read-out: IC50 in micromolar, DU145 (MTT assay)
Procedure: as §1, §2, §3

[4] = test system: MDAMB231 breast cancer cell line; test: Soft agar colony-formation assay, MDAMB231; type: cell-based; settings: 1 week, Alamar Blue, read-out: IC50 in micromolar, MDAMB231 (Soft Agar Assay)
Procedure: (§4) The Soft Agar Colony-formation Assay is an anchorage-independent growth assay in soft agar, which is one of the most stringent assays for detecting malignant transformation of cells. For this assay, malignant cells are cultured with appropriate controls in soft agar medium for 1-2 weeks. Following this incubation period, formed colonies can either be analyzed morphologically using cell stain and quantifying the number of colonies formed.
(§5) Briefly, for Soft Agar Assay a mixture of 50 ul of 2× medium (taken appropriately as per cell line) and 50 ul of 1.2% Bacto Agar were plated on to each well of 96 well micro titer assay plate. 10 ul of cells (of specific plating efficiency pre standardized for respective cell line) were mixed with 20 ul of 2× medium and 30 ul of 0.8% of Bacto Agar and 1.6 ul of drug (of appropriate concentration) in a vial and transferred to the solidified pre layers of the assay plates. The cells were then allowed to grow and form colonies at 37° C. and 5% C02 for 1 week. An intermittent feeding with 50 ul of appropriate 2× medium was performed after 3 days of experimental set up. 16 ul of Alamar Blue (1.5 mg/ml) was then added to all the wells to quantify the developed colonies. The plates were incubated for 24 hrs at 37° C. Absorbance was then measured at 630 nm. XY graph of log Percent viability was then plotted against log drug concentration.
(§6) Following plating efficiencies were standardized for Soft Agar Assay: […]

[5] = test system: PC3 prostate cancer cell line; test: Soft agar colony-formation assay, PC3; type: cell-based; settings: 1 week, Alamar Blue, read-out: IC50 in micromolar, PC3 (Soft Agar Assay)
Procedure: as §4, §5, §6

[6] = test system: PC3 spheres (cancer stem cells); test: In vitro sphere-forming assay (cancer stem cells), PC3 in Prostosphere media; settings: for 3D sphere count of PC3 in Prostosphere media: 2000 cells/well, n = 6 ± S.D; for viability at 250 µM: read-out: % Viability of spheres (PC3), 250 uM; for viability at 0.0025 µM: read-out: % Viability of spheres (PC3), 0.0025 uM
Source text: (§7) In Vitro Sphere-forming Assay: Sphere assay measures the ability of cancer stem cells (CSCs) to form spheres in specially designed serum-free medium.
Materials and Reagents:50×B27 Supplement (Life Technologies, Invitrogen, Catlog No.: 17502-044), Fibroblast Growth Factor (FGF) (Sigma-Aldrich, Catlog No.: F029125), Epidermal Growth Factor (EGF) (Sigma-Aldrich, Catlog No.: E9644), Insulin (Sigma, Catlog No.: 19278), Dulbecco's Modified Eagle Medium/F12 (HiMedia Catlog No.: AL139-6), Dulbecco's Phosphate Buffered Saline (HiMedia Catlog No.: TL1006), Trypan Blue (TC193), Prostate Epithelial Media (LONZA, Catlog No.: CC-3166) MEGM (LONZA, Catlog No.: CC-3051), Heparin (Sigma, Catlog No.: H3393), Penstrep (HiMedia, Catlog No.: A002)
Prostosphere Media Preparation (For 100 mL): 1 g methyl cellulose autoclaved with magnetic stirrer, 100 mL plain media (Prostate Epithelial Basal Medium) was added and dissolved, under magnetic stirring. After complete dissolution, Insulin—40 μL, B27—2 mL, EGF—80 μL, Penstrep—1 ml was added.
(§8) Procedure—The cells were trypsinised and made into single-cell suspension by passing through cell strainers (100 μl and 40 μl, respectively), The cells were diluted at a concentration of 2000 cells/100 μL and suspended in either Mammosphere (for breast cell lines) or Prostosphere (for prostate cell lines). 100 μL of this suspension was added into each well of 96-well suspension plates and incubated at 37 C, 50 CO2 for 24 hrs. Appropriate concentrations of the drugs (2 L) were added into respective wells with 100 μL of stem cell culture medium. Plates were incubated at 37° C., 50% CO2 for 72 hrs. After incubation, 2.5 μL of the respective drug concentration and 50 μL of stem cell culture medium were added into each well and the plates were further incubated at 37° C., 500 CO2 for 72 hrs. 3 μL of the respective drug concentration was added with 50 μL of stem cell culture medium again after incubation and plates were reincubated for 72 hrs at 37° C., 500 CO2. Number of primary spheres formed for each concentration were counted. The spheres were converted to 0 viability of spheres compared to untreated (Growth Control with DMSO, GCD).

[7] = test system: MDAMB231 spheres (cancer stem cells); test: In vitro sphere-forming assay (cancer stem cells), MDAMB231 in Mammosphere media; settings: for 3D sphere count of MDAMB231 in Mammosphere media: 2000 cells/well, n = 6 ± S.D; for viability at 0.025 µM / viability at 0.25 µM / viability at 2.5 µM / viability at 25 µM / viability at 250 µM / viability at 0.0025 µM: Homo sapiens
Procedure: as §7
Mammosphere Media Preparation (For 100 mL): 1 g methyl cellulose autoclaved with magnetic stirrer, 100 ml plain media (MEBM) was added and dissolved under magnetic stirring. After complete dissolution FGF—80 μL, EGF—40 μL, Penstrep—1 mL, Heparin—400 μL was added.
as §8

[8] = read-out: % Viability of spheres (PC3), 0.025 uM, GCD = 100% viability
[9] = read-out: % Viability of spheres (PC3), 0.25 uM, GCD = 100% viability
[10] = read-out: % Viability of spheres (PC3), 2.5 uM, GCD = 100% viability
[11] = read-out: % Viability of spheres (PC3), 25 uM, GCD = 100% viability
[12] = MDA-MB-231, read-out: % Viability of spheres (MDAMB231)
[13] = Homo sapiens, MDA-MB-231, 168 h
[14] = read-out: % Viability of spheres (PC3)

SMILES	IC50 ([2]; 48 h)	3D sphere count of PC3 in Prostosphere media ([6]; 0.025 uM)	3D sphere count of PC3 in Prostosphere media ([6]; 0.25 uM)	3D sphere count of PC3 in Prostosphere media ([6]; 2.5 uM)	3D sphere count of PC3 in Prostosphere media ([6]; 25 uM)	3D sphere count of PC3 in Prostosphere media ([6]; 250 uM)	viability at 0.025 µM [6, 8]	viability at 0.25 µM [6, 9]	viability at 2.5 µM [6, 10]	viability at 25 µM [6, 11]	3D sphere count of MDAMB231 in Mammosphere media ([7]; 0.025 uM)	3D sphere count of MDAMB231 in Mammosphere media ([7]; 0.25 uM)	3D sphere count of MDAMB231 in Mammosphere media ([7]; 2.5 uM)	3D sphere count of MDAMB231 in Mammosphere media ([7]; 25 uM)	3D sphere count of MDAMB231 in Mammosphere media ([7]; 250 uM)	viability at 0.025 µM [7, 12]	viability at 0.25 µM [7, 12]	viability at 2.5 µM [7, 12]	viability at 25 µM [7, 12]	IC50 [4, 13]	also measured
CCOC(=O)N1CCN(CCCCCCOc2c3c(c(-c4ccc5c(c4)OCO5)c4cc(OC)c(OC)cc24)C(=O)OC3)CC1 [Formula III, ethyl 4-(6-(9-(benzo[d][1,3]dioxol-5-yl)-1,3-dihydro-6,7-dimethoxy-1-oxonaphtho[2,3-c]furan-4-yloxy)hexyl)piperazine-1-carboxylate]	2.36 µM	49(±3)	38(±4)	29(±4)	23(±3)	0(±0)	63%	49%	37%	29%	41(±2)	35(±3)	30(±4)	17(±4)	0(±0)	53%	45%	39%	22%		IC50 [1]: 6.68 µM; IC50 [3]: 5.41 µM; IC50 [4]: 2.53 µM; IC50 [5]: 4.84 µM; viability at 250 µM ([6]; GCD = 100% viability): 0%; viability at 250 µM [7, 12]: 0%
c1ccc2c(-c3ccc4c(c3)OCO4)ccc(OCCCCCCN3CCOCC3)c2c1 [Formula IV, 4-(6-(1-(benzo[d][1,3]dioxol-5-yl)naphthalen-4-yloxy)hexyl)morpholine]	3.79 µM	44(±3)	35(±3)	32(±3)	22(±3)	0(±0)	59%	47%	43%	29%	40(±2)	35(±2)	25(±2)	11(±2)	0(±0)	50%	44%	31%	13%	2.59 µM	IC50 [1]: 3.86 µM; IC50 [3]: 3.16 µM; IC50 ([5]; 168 h): 7.5 µM; viability at 250 µM ([6]; GCD = 100% viability): 0%; viability at 250 µM [7, 12]: 0%
Cl.c1ccc2c(-c3ccc4c(c3)OCO4)ccc(OCCCCCCN3CCOCC3)c2c1 [Formula V, 4-(6-(1-(benzo[d][1,3]dioxol-5-yl)naphthalen-4-yloxy)hexyl)morpholine hydrochloride]		58(±3)	49(±3)	41(±2)	30(±5)	0(±0)					41(±5)	39(±3)	27(±3)	19(±4)	0(±0)						IC50 ([1]; hydrochloride): 9.25 µM; IC50 ([2]; hydrochloride): 6.03 µM; IC50 ([3]; hydrochloride): 9.77 µM; IC50 ([4]; hydrochloride): 2.21 µM; IC50 ([5]; hydrochloride): 3.98 µM; viability at 0.025 µM [6, 14]: 67%; viability at 0.25 µM [6, 14]: 57%; viability at 2.5 µM [6, 14]: 48%; viability at 25 µM [6, 14]: 35%; viability at 0.25 µM ([7]; MDA-MB-231, read-out: % Viability of spheres (MDAMB231), 0.25 uM, GCD = 100% viability): 47%; viability at 2.5 µM ([7]; MDA-MB-231, read-out: % Viability of spheres (MDAMB231), 2.5 uM, GCD = 100% viability): 33%; viability at 25 µM ([7]; MDA-MB-231, read-out: % Viability of spheres (MDAMB231), 25 uM, GCD = 100% viability): 23%
c1ccc2c(-c3ccc4c(c3)OCO4)ccc(OCCCCN3CCOCC3)c2c1 [Formula VIII, 4-(4-(1-(benzo[d][1,3]dioxol-5-yl)naphthalen-4-yloxy)butyl)morpholine]	1.77 µM	49(±3)	41(±2)	36(±2)	28(±3)		59%	50%	44%	34%	49(±4)	39(±2)	28(±3)	19(±1)		69%	55 ± 2%	39%	26%	1.73 µM	IC50 ([1]; Homo sapiens, MDA-MB-231, 48 h): 1.15 µM; IC50 ([3]; Homo sapiens, DU-145, 48 h): 0.723 µM; IC50 ([5]; 168 h): 2.07 µM; 3D sphere count of PC3 in Prostosphere media ([6]; 0.0025 uM): 57(±2); viability at 0.0025 µM ([6]; GCD = 100% viability): 69%; 3D sphere count of MDAMB231 in Mammosphere media ([7]; 0.0025 uM): 54(±3); viability at 0.0025 µM [7, 12]: 76%
c1ccc2c(-c3ccc4c(c3)OCO4)ccc(OCCN3CCOCC3)c2c1 [Formula X, 4-(2-(1-(benzo[d][1,3]dioxol-5-yl)naphthalen-4-yloxy)ethyl)morpholine]	4 µM	61(±3)	53(±3)	42(±4)	28(±3)		72%	62%	49%	33%	42(±4)	34(±3)	21(±3)	7(±3)		51%	41%	25%	8%	4.18 µM	IC50 ([1]; Homo sapiens, MDA-MB-231, 48 h): 5.36 µM; IC50 ([3]; Homo sapiens, DU-145, 48 h): 5.96 µM; IC50 ([5]; 168 h): 10.3 µM; 3D sphere count of PC3 in Prostosphere media ([6]; 0.0025 uM): 74(±4); viability at 0.0025 µM ([6]; GCD = 100% viability): 87%; 3D sphere count of MDAMB231 in Mammosphere media ([7]; 0.0025 uM): 57(±5); viability at 0.0025 µM [7, 12]: 69%
